Our source for the TGI and GI50 values is PubChem BioAssay (NCI).

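Compound exposure: 48 hours, 5 concentrations, 96-well plates. GI50 is the concentration that inhibits growth by half. TGI: total growth inhibition.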 Bounds are passed on as bounds.

Assay in all cases: NCI anticancer screen, dose series, 48 h
In assay [1] the test system is BT-549 breast.
The subject of assay [2] is HCT-15 colon.
For assay [3], the system named is M14 melanoma.
Assay [4] has as its system NCI-H460 lung.
Assay [5] relates to NCI-H522 lung.
Assay [6] has as its system OVCAR-4 ovarian.
The subject of assay [7] is SF-295 CNS.
Assay [8] has as its system SR leukemia.
The subject of assay [9] is TK-10 renal.
Assay [10] has as its system UACC-257 melanoma.

As to `O=C1Oc2ccccc2C(=O)/C1=C1/C=C(c2ccccc2)SS1`, the TGI in assay [1], in assay [2], in assay [3], in assay [4], in assay [5] and in [6] was over 100000 nM in each case. For the same molecule, the TGI was over 100000 nM in [7], 61300 nM in assay [8], over 100000 nM in [9] and over 100000 nM in assay [10].

Take `CCN(CC)CCCNc1ccc(C)c2sc3ccccc3c(=O)c12`: the GI50 in assay [1] is 1830 nM; in assay [2], 248 nM; in assay [3], 193 nM; in [4], 460 nM; in assay [5] it was 3080 nM; in assay [6], 2120 nM. For the same molecule, the GI50 is 808 nM in [7], 268 nM in assay [8], 1370 nM in [9] and 230 nM in assay [10]. The TGI was found to be 11100 nM in assay [1]; 651 nM in [2]; 401 nM in [3]; 1710 nM in [4]; 15900 nM in assay [5]; 33000 nM in assay [6]. In addition, the TGI in assay [7] was 2220 nM; in assay [8], 988 nM; in assay [9], 2760 nM; in [10], 540 nM.

As for `OC1(c2ccc(Cl)c(C(F)(F)F)c2)CCN(CCCC(c2ccc(F)cc2)c2ccc(F)cc2)CC1`, the GI50 was 1090 nM in [1]; 888 nM in assay [2]; 828 nM in [3]; 1230 nM in [4]; 902 nM in [5]; 804 nM in [6]. Besides, the GI50 in assay [7] is 833 nM; in [8], 831 nM; in assay [9], 890 nM; in [10] it was 826 nM. The TGI was 2100 nM in [1]; 1750 nM in assay [2]; 1520 nM in [3]; 9050 nM in assay [4]; 1790 nM in assay [5]; 1820 nM in assay [6]. Moreover, the TGI in assay [7] turned out to be 1630 nM; in assay [8], 2000 nM; in [9], 1690 nM; in assay [10] it was 1510 nM.

On to `CC1(C)N=C(N)N=C(N)N1c1ccc(CCC(=O)Nc2ccc(S(=O)(=O)F)cc2)cc1`, for which the GI50 is 12600 nM in assay [1]; 3480 nM in assay [2]; 936 nM in assay [3]; 253 nM in assay [4]; 1260 nM in [5]; over 78500 nM in assay [6]. Moreover, the GI50 in assay [7] was 4490 nM; in [8] it was 209 nM; in assay [9], 1720 nM; in assay [10] it was 15500 nM. Besides, the TGI in assay [1], in assay [2], in assay [3], in assay [4], in [5] and in [6] was over 100000 nM throughout. Further, the TGI in assay [7], in assay [8], in assay [9] and in assay [10] was over 100000 nM in each case.

On to `CCCCCOc1ccc(/C=N/Nc2cc(C)nc3ccc(Cl)cc23)cc1`, for which the GI50 in [1] was 1740 nM; in assay [2], 1430 nM; in assay [3], 1760 nM; in [4], 1950 nM; in assay [5], 1630 nM; in assay [6], 1720 nM. Besides, the GI50 in assay [7] is 1770 nM; in [8] it was 369 nM; in assay [9], 1770 nM; in assay [10] it was 1720 nM. Further, the TGI turned out to be 3280 nM in assay [1]; 2840 nM in assay [2]; 3230 nM in [3]; 3960 nM in [4]; 3080 nM in [5]; 3220 nM in assay [6]. Further, the TGI in assay [7] was 3340 nM; in assay [8], 1730 nM; in assay [9], 3160 nM; in assay [10] it was 3270 nM.

For `N#CC1c2ccccc2C=CN1C(=O)CCCl` (stereo not given), the GI50 in [1] is 16900 nM; in assay [2], 2870 nM; in assay [3] it was 13600 nM; in [4] it was 18400 nM; in [5], 1520 nM; in [6], 2790 nM. The GI50 in assay [7] was 29400 nM; in assay [8] it was 3070 nM; in [9], 2160 nM; in assay [10], 13100 nM. In addition, the TGI in assay [1] was determined as 30700 nM; in assay [2], 9550 nM; in [3] it was 27600 nM; in [4], 36300 nM; in assay [5], 2920 nM; in assay [6], 10700 nM. Further, the TGI in assay [7] is over 87500 nM; in assay [8] it was 26700 nM; in assay [9], 6020 nM; in assay [10] it was 26500 nM.

Regarding `Nc1nc2c(c3cnccc13)C(c1ccc(Cl)c(Cl)c1)Cc1cnccc1-2` (stereo not given), the GI50 in [1] was 570 nM; in assay [2], 409 nM; in assay [3], 360 nM; in [4], 428 nM; in [5], 249 nM; in assay [6], 4280 nM. In addition, the GI50 is 394 nM in [7], 384 nM in [8], 1180 nM in assay [9] and 14800 nM in assay [10]. The TGI in assay [1] worked out at 7300 nM; in assay [2] it was 11100 nM; in [3], 2160 nM; in assay [4], 3990 nM; in [5], 730 nM; in assay [6], 25100 nM. The TGI in [7] is 4760 nM; in assay [8], over 100000 nM; in assay [9] it was 9480 nM; in assay [10], 29100 nM.

Take `O=C1/C(=C\c2ccccc2)CN(C(=O)CCN2CCCCC2)C/C1=C/c1ccccc1`: the TGI in assay [1] was 1940 nM; in [2], 4120 nM; in assay [3] it was 4660 nM; in assay [4], 5960 nM; in assay [5], 2310 nM; in [6], 4340 nM. Also, the TGI worked out at 3160 nM in assay [7], 14500 nM in [8], 10900 nM in [9] and 3520 nM in [10].
